Results from patent US20220204575A1, “MODULATING SURVIVAL OF THERAPEUTIC CELLS AND METHODS, CELLS AND NUCLEIC ACIDS RELATED THERETO” (The Regents of the University of California, priority 2019, published 2022).

What was measured:
Format in all cases: cell-based
primary human T cells = test: Constitutive overexpression of pro-apoptotic BCL-2 family proteins in T cells, FACS at culture day 12
Experimental: The abilities of several pro-apoptotic proteins (e.g., BIM, truncated Bid (tBID), and BAD) to induce T cell apoptosis when synthetically overexpressed from a constitutive promoter were tested. The tested T cells were also engineered to constitutively overexpress anti-apoptotic BCL-2.
Without being bound by theory, these effects were likely due to leaky expression of BIM, the high effectiveness of BIM in inducing apoptosis, or a combination thereof.

engineered T cells = test: Inducible tBID circuit with varied levels of constitutive BCL-2 expression, T cell survival; details: constant antigen-induced tBID expression, varied constitutive BCL-2
Text: The ability of anti-apoptotic BCL-2 to buffer a pro-apoptotic protein was further tested in an inducible tBID circuit (described in more detail below) with varied levels of constitutive BCL-2 expression (schematically depicted in FIG. 5). In this experiment, constant levels of tBID expression were induced by the presence of antigen expressing target cells, BCL-2 expression levels were varied, and the amount of T cell survival at different levels of BCL-2 expression was quantitated (FIG. 6).

T cells = test: Basal T cell death from inducible response element constructs in the absence of synNotch antigen
Text: Differences in the potency of various BCL-2 family members in inducible systems for therapeutic cell population control were also investigated and differences in potency were observed. For example, molecular circuits were designed and tested that included a response element construct including a UAS, inducible by the released transcription factor (TF) domain of a synNotch receptor, driving expression of various different BCL-2 family members (e.g., BIM, tBID, etc.) and a constitutive reporter (mCherry) (see schematic depiction provided in FIG. 19). Upon binding its target antigen, the synNotch receptor releases the TF domain which activates the UAS thereby driving expression of the respective BCL-2 family protein and the mCherry reporter is used to observe the size of the cell population thereafter.

[1] = tested on: human primary CD4 T cells; test: Anti-Her2 synNotch driving pro-apoptotic BCL-2 family protein X, T cell survival with antigen-expressing target cells; details: in the presence of antigen-expressing target cells
Experimental: For example, a circuit was designed, as schematically depicted in FIG. 27, with an anti-Her2 synNotch driving expression of a pro-apoptotic BCL-2 family protein “X”, where X stands for the various pro-apoptotic BCL-2 family members were tested in the depicted circuit. As shown, upon the anti-Her2 scFv portion of the synNotch receptor binding Her2 expressed by a target cell, the transcription factor (TF) portion of the synNotch, containing Gal4-VP64, is released and inducing expression of the pro-apoptotic BCL-2 family protein “X”. The level of induced apoptosis in the presence of cells expressing the target antigen, as compared to control cells not expressing the target antigen, was then assessed.
Results of testing BID, tBID, PUMA, BMF, HRK and BIK as pro-apoptotic BCL-2 family protein “X” in this system are shown in FIG. 28, along with a negative control employing BFP in place of the pro-apoptotic BCL-2 family protein “X”.
Thus, the therapeutic cells encoding the BID circuit were able to survive BID induction.

Substance: BCL-2: anti-apoptotic BCL-2 protein, human UniProt P10415, SEQ ID NO: 105
- buffering against apoptotic effects of tBID and BIM (primary human T cells; constitutive co-expression of BCL-2): at least partially buffer against the apoptotic effects
- T cell survival at different levels of BCL-2 expression (engineered T cells): titratably buffers against apoptosis
- T cell survival at different levels of BCL-2 expression (engineered T cells; listed as BCL2): less tBID-induced apoptosis

Substance: BIM: pro-apoptotic BCL-2 family protein, human BIM UniProt O43521, SEQ ID NO: 99
- ability to induce T cell apoptosis / drive T cell death (primary human T cells; constitutive expression, with constitutive overexpression of BCL-2, culture day 12): drove significant apoptosis
- basal T cell death from leaky expression (T cells; absence of synNotch target antigen, mCherry reporter): sufficient to cause widespread T cell death
- cell death from uninduced inducible construct (T cells; uninduced, in the absence of co-expression with anti-apoptotic BCL-2): leads to significant levels of cell death

Substance: HRK: pro-apoptotic HRK protein, human UniProt O00198, SEQ ID NO: 103
- induced apoptosis of T cells [1]: induce apoptosis of human primary CD4 T cells

Substance: BMF: pro-apoptotic BMF protein, human UniProt Q96LC9
- induced apoptosis of T cells [1]: induce apoptosis of human primary CD4 T cells
